Patent publication US4690935A, “Inhibition of tumor growth and metastasis with calcium channel blocker compounds” (Wayne State University, priority 1983, dated 1987)
“Also recorded” adds a separate entry of the source. Where two headings read alike, the source gives them in different places.

Assays:
B16a Tumor Cells [1] = test: In vitro proliferation of B16a tumor cells; type: cell-based, mouse; details: for effect on tumor cell proliferation (in words): B16a cells, 10-40 micrograms/ml, five day assay
Protocol: Proliferation studies were designed to measure the effects of BAY e 9736 on the proliferation of B16 a tumor cells. B16a tumor cells were plated into T-25 flasks (4×10^4 cells/flask) and allowed to grow at 37° C. for 16 hours. The media was removed from the flasks and plating efficiency was determined using a Coulter counter. Replacement media was added to the flasks, which were allowed to incubate for 24 hours. After the 24 hour incubation, 10 microliters of control (media), DMSO, or BAY e 9736 in DMSO (40 mg/ml stock) was added to the flasks. Media replacement with and without BAY e 9736 were performed every 24 hours for 4 consecutive days. Control flasks (3) were terminated every day of the proliferation study with 4 terminated on the final day.
A 40 mg aliquot of BAY e 9736 was dissolved in 1 milliliter dimethyl sulfoxide (DMSO). Aliquots of this 40 mg/ml stock were diluted with DMSO to final concentrations of 20 and 10 mg/ml. At day two and each successive day, 10 microliter aliquots of 40, 20, and 10 mg/ml BAY e 9736 were added once a day to the new media of flasks containing proliferating B16a tumor cells as previously described.

[2] = test system: Walker 256 L-Pam tumor cell; test: Walker 256 L-Pam tumor cell attachment to plastic; type: cell-based, rat; details: 0.04 mg/ml; for effect on tumor cell adhesion to plastic wells (in words): thirty minutes preincubation; for inhibition at 40 µg/mL: Rattus norvegicus, Walker 256, 1 h, 1 h plating, read-out: % Inhibition vs control (attachment to plastic)
Protocol: Walker ^256 L-Pam tumor cells were plated at approximately 5×10^5 cells/flask. The cells were labelled with ^125 I-UDR (iodinated uridine deoxyribonucleic acid) at 0.5 microcuries/ml media (5.0 microcurie/flask). Cells were incubated for approximately 24 hours and the cell count/flask was determined to be 8.14×10^5 cell/flask. The cells from each flask were counted (gamma counter) and found to have an average of 0.24 cpm/cell.
Platelet enhanced tumor cell attachment to plastic was tested using four conditions: tumor cell alone (Condition A), tumor cells plus washed platelets (Condition B), tumor cells plus platelet poor plasma (Condition C) and tumor cells, washed platelets and platelet poor plasma (Condition D).
Walker 256 L-Pam tumor cells obtained from culture are radiolabeled with ^125 I-UDR as described previously. The radiolabeled cells are removed from T-75 flasks with trypsin (2 milliliters of 0.25% trypsin and 0.01% EDTA) in MEM. After two minutes, the flasks are washed 3X with trypsin "quench," 10% fetal calf serum in MEM, to quench and remove the trypsin in order to prevent cell lysis. The tumor cells are removed from the flasks in MEM and adjusted to 2.5×10^5 cells /milliliter. One hundred microliters of the tumor cell suspension (2.5×10^4 cells) were plated in […] tissue culture wells (Costar) and overlaid with 250 microliters of Wash Solution #2 (see Platelet Prep). The cells were incubated at room temperature (approximately 22° C.) for 5 minutes. Following this incubation 10 microliters of 7.35 mg/ml CaCl2 were added to the culture wells, 10 microliters of platelet poor plasma (diluted 1:32 with platelet Wash Solution #2) were added to culture wells for Conditions C and D and 250 microliters of washed platelets (3×10^8 /ml final concentration) were added to culture wells for Conditions B and D. Where appropriate, Wash Solution #2 was added to wells (Conditions A and C) so that all wells had the same final volume of solutions. The wells were incubated for one hour at 37° C. After the one hour incubation, the media containing any unattached tumor cells were removed by aspiration and then the wells were washed 2X with 1 ml of sodium phosphate buffer (PBS). The adhering cells were removed by trypsinization (as described above) and counts per wells determined using a gamma counter. Results were determined as total cpm plated per well.
The effect of BAY e 9736 on Walker 256 L-Pam tumor cell adhesion to plastic wells […] was determined by pretreating monodispersed Walker 256 L-Pam tumor cells with BAY e 9736 dissolved in DMSO prior to plating the cells. Except for the pretreatment, plastic adhesion studies were performed as previously described in the literature. A 8 mg sample of BAY e 9736 was dissolved in 1 ml of DMSO. Five microliters of the 8 mg/ml BAY e 9736 was added to each 1 ml of tumor cells.

B16a Tumor Cells [3] = test: "Spontaneous" lung metastasis from an in vivo subcutaneous implant of B16a tumor cells; set-up: species or system mouse; details: mice; for % of Control (mean number of pulmonary metastases): oral once daily, 27 days, x ± SEM, N = 10, control = 100%; for reduction of spontaneous metastasis (in words): chronic oral administration
Source text: B16 amelanotic melanoma (B16a) and Walker 256 L-Pam carcinosarcoma were obtained from the Division of Cancer Treatment, Animal and Human Tumor Bank, Mason Research Institute, Worcester, Mass. Tumors were passaged four times after receipt in syngeneic C57BL/6J male mice (B16a) or allogenic Sprague Dawley rats (Walker 256 L-Pam). Passaging involved subcutaneous implantations of tumor pices (diced to approximately 2×2 MM) into the right auxiliary region using a 18 gauge needle. Mice weighing approximately 20 grams (4 to 5 weeks old) were used to passage the B16a cell line and female rats were used to passage the Walker 256 L-Pam cell line. Animals were housed under identical conditions of temperature, feeding, photoperiod, etc. The transplanted tumors were allowed to grow for approximately 14 days following implantation.
The B16a tumor cells, obtained by the previously described procedure of tumor dispersion and tumor cell elutriation were used to test the antimetastatic effect of BAY e 9736.
The effect of chronic oral administration of BAY e 9736 on spontaneous lung metastasis from a primary subcutaneous B16a tumor was also determined. A 16 mg portion of BAY e 9736 was dissolved in 1 ml of PEG-400 and diluted 1:8, 1:32, 1:80, and 1:800. Syngeneic C56BL/6J mice were injected subcutaneously with 1×10^5 B16a tumor cells in 0.1 ml prepared as previously described. Starting one day post tumor injection, the mice were administered BAY e 9736 orally once a day for 27 days with 0.1 ml of the diluted BAY e 9736. The control and treated mice were housed under identical conditions of temperature, feeding and photoperiod, etc. The mice were sacrificed 28 days after the injection of tumor cells and the lungs were removed in Bouin's solution and visible bilateral metastasis counted.

COCCOC(=O)C1=C(C)NC(C)=C(C(=O)OC(C)C)C1c1cccc([N+](=O)[O-])c1 (stereo not drawn) [BAY e 9736, 1,4-dihydro-2,6-dimethyl-4-(3' nitrophenyl)-pyridine-3-(beta-methyoxyethylester)-5-(isopropyl ester)]
effect on tumor cell proliferation (in words) (B16a Tumor Cells [1]): inhibits tumor cell proliferation | effect on tumor cell proliferation (in words) (B16a Tumor Cells [1]; listed as nimodipine): decreases the rate of tumor cell growth over a five day assay period | activity at 10 µg/mL (B16a Tumor Cells [1]; Mus musculus, .01 mg/ml, drug readded once daily, x ± SEM, n = 4, read-out: % of Control Tumor Cell Number): 50 ± 5% | activity at 20 µg/mL (B16a Tumor Cells [1]; Mus musculus, .02 mg/ml, drug readded once daily, x ± SEM, n = 4, read-out: % of Control Tumor Cell Number): 25 ± 5% | activity at 40 µg/mL (B16a Tumor Cells [1]; Mus musculus, .04 mg/ml, drug readded once daily, x ± SEM, n = 4, read-out: % of Control Tumor Cell Number): 14 ± 3% | effect on tumor cell adhesion to plastic wells (in words) [2]: decreased the percent of cells adhering to the plastic wells; also recorded: significant in all groups tested | effect on tumor cell adhesion to plastic wells (in words) ([2]; listed as nimodipine): decreases or inhibits the adhesion of tumor cells to plastic incubation wells | inhibition at 40 µg/mL ([2]; A = tumor cells alone): 72% | inhibition at 40 µg/mL ([2]; B = tumor cells + platelets): 50 ± 8.2% | inhibition at 40 µg/mL ([2]; C = tumor cells + PPP): 44 ± 9.2% | inhibition at 40 µg/mL ([2]; D = tumor cells + PPP + platelets): 40 ± 7.5% | % of Control (mean number of pulmonary metastases) (B16a Tumor Cells [3]; 0.1 mg/kg): 68 ± 14% | % of Control (mean number of pulmonary metastases) (B16a Tumor Cells [3]; 1.0 mg/kg): 45 ± 9% | % of Control (mean number of pulmonary metastases) (B16a Tumor Cells [3]; 2.5 mg/kg): 33 ± 22% | % of Control (mean number of pulmonary metastases) (B16a Tumor Cells [3]; 10.0 mg/kg): 28 ± 7% | % of Control (mean number of pulmonary metastases) (B16a Tumor Cells [3]; 80.0 mg/kg): 19 ± 6% | reduction of spontaneous metastasis (in words) (B16a Tumor Cells [3]): effective in decreasing the number of spontaneous metastasis as compared to the control mice | reduction of spontaneous metastasis (in words) (B16a Tumor Cells [3]; listed as nimodipine): significantly reduce spontaneous metastasis
